Results: patent US20260317320A1, “C5AR1 ANTAGONISTS AND USES THEREOF” (Vanqua Bio, Inc., priority 2022, published 2026)
Like-named read-outs stand apart in the source and are kept apart here.

Columns and labels:
[1] = target: T1, complement C5a receptor 1 (C5aR1) (Homo sapiens, UniProt P21730); test: β-arrestin recruitment via C5aR1 activation in live CHO-K1 cells (PathHunter), agonist mode; assay type: cell-based
T1 construct: β-galactosidase fragment (PathHunter enzyme complementation); host or cells: CHO-K1 (PathHunter CHO-K1 C5aR1 β-arrestin cell line)
T1 sequence (P21730 1-350): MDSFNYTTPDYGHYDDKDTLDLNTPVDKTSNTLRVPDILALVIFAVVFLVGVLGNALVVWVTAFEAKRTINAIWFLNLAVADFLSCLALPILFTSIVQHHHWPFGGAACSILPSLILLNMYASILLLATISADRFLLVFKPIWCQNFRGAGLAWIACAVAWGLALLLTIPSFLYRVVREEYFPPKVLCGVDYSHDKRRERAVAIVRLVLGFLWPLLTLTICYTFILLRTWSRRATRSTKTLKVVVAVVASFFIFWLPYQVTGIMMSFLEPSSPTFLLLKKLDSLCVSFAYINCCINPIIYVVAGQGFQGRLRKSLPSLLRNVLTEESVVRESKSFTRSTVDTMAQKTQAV
Experimental: Exemplary compounds were evaluated for classical GPCR β-arrestin recruitment via complement C5a receptor 1 (C5aR1) activation in live CHO-K1 cells. This cell line expresses two fragments of the […] protein coupled to β-arrestin and C5aR1. Complementation of the two fragments allows for the assessment of both C5aR1 agonism and antagonism. Recombinant hC5a (EC90) was used as the competing natural agonist against disclosed compounds (more information on the expanded protocol and cell line can be found on the manufacturer's website: PathHunter® CHO-K1 C5aR1 β-arrestin cell line, DiscoverX, Catalog No. 93-0557C2). […] IC50 ranges: A: IC50≤500 nM; B: 500 nM<IC50≤5 uM; C: 5 uM<IC50≤100 uM; D: IC50>100 uM.

[2] = target: T1, complement C5a receptor 1 (C5aR1); test: β-arrestin recruitment via C5aR1 activation in live CHO-K1 cells (PathHunter), antagonist mode; assay type: cell-based; settings: antagonist mode; recombinant hC5a (EC90) as competing natural agonist; live CHO-K1 cells; read-out: [Antagonist] B-arrestin2 recruitment: Average IC50
Outline: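 Live CHO-K1 cells carry two galactosidase enzyme fragments, one fused to β-arrestin and one to C5aR1, so that β-arrestin recruitment restores enzyme activity. Agonist mode tests compounds alone. Antagonist mode tests them against recombinant hC5a at EC90, and IC50 values are reported in binned ranges.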

| SMILES | [Agonist] B-arrestin2 recruitment: Average EC50 (nM) [1] | IC50 [2] | [Agonist] B-arrestin2 recruitment: Average EC50 (nM) ([1]; at 10 μM) |
| --- | --- | --- | --- |
| Cc1cnc2cc(C3CCN(c4c(C)cccc4F)CC3)c(=O)n([C@@H]3CCC(F)(F)c4nccnc43)c2n1 [149A, (R)-5-(8,8-Difluoro-5,6,7,8-tetrahydroquinoxalin-5-yl)-7-(1-(2-fluoro-6-methylphenyl)piperidin-4-yl)-3-methylpyrido[2,3-b]pyrazin-6(5H)-one] | Non-Active | 5 to 100 µM | – |
| Cc1cnc2cc(C3CCN(c4c(C)cccc4F)CC3)c(=O)n([C@H]3CCC(F)(F)c4nccnc43)c2n1 [149B, (S)-5-(8,8-Difluoro-5,6,7,8-tetrahydroquinoxalin-5-yl)-7-(1-(2-fluoro-6-methylphenyl)piperidin-4-yl)-3-methylpyrido[2,3-b]pyrazin-6(5H)-one] | Non-Active | < 0.5 µM | – |
| Cc1cnc2cc([C@H]3CC[C@@H](c4cnccc4C(F)(F)F)CC3)c(=O)n(Cc3ncccc3C(F)(F)F)c2n1 [150A, 3-Methyl-5-((3-(trifluoromethyl)pyridin-2-yl)methyl)-7-((1s,4s)-4-(4-(trifluoromethyl)pyridin-3-yl)cyclohexyl)pyrido[2,3-b]pyrazin-6(5H)-one] | – | < 0.5 µM | Non-Active at 10 μM |
| Cc1cnc2cc([C@H]3CC[C@H](c4cnccc4C(F)(F)F)CC3)c(=O)n(Cc3ncccc3C(F)(F)F)c2n1 [150B, 3-Methyl-5-((3-(trifluoromethyl)pyridin-2-yl)methyl)-7-((1r,4r)-4-(4-(trifluoromethyl)pyridin-3-yl)cyclohexyl)pyrido[2,3-b]pyrazin-6(5H)-one] | Non-Active | < 0.5 µM | – |
| Cc1cccc(F)c1N1CCC(c2cc3nccnc3n([C@H]3CCc4nccnc43)c2=O)CC1 [160A, (S)-5-(6,7-Dihydro-5H-cyclopenta[b]pyrazin-5-yl)-7-(1-(2-fluoro-6-methylphenyl)piperidin-4-yl)pyrido[2,3-b]pyrazin-6(5H)-one] | – | 5 to 100 µM | Non-Active at 10 μM |
| Cc1cccc(F)c1N1CCC(c2cc3nccnc3n([C@@H]3CCc4nccnc43)c2=O)CC1 [160B, (R)-5-(6,7-Dihydro-5H-cyclopenta[b]pyrazin-5-yl)-7-(1-(2-fluoro-6-methylphenyl)piperidin-4-yl)pyrido[2,3-b]pyrazin-6(5H)-one] | – | 5 to 100 µM | Non-Active at 10 μM |
| Cc1cnc2cc(N3CCN(c4c(C)cccc4F)CC3)c(=O)n(Cc3nccnc3OC(F)F)c2n1 [161A, 5-((3-(Difluoromethoxy)pyrazin-2-yl)methyl)-7-(4-(2-fluoro-6-methylphenyl)piperazin-1-yl)-3-methylpyrido[2,3-b]pyrazin-6(5H)-one] | – | 0.5 to 5 µM | Non-Active at 10 μM |
| Cc1cnc2cc(N3CCN(c4c(C)cccc4F)CC3)c(=O)n(Cc3nccn(C(F)F)c3=O)c2n1 [161B, 5-((4-(Difluoromethyl)-3-oxo-3,4-dihydropyrazin-2-yl)methyl)-7-(4-(2-fluoro-6-methylphenyl)piperazin-1-yl)-3-methylpyrido[2,3-b]pyrazin-6(5H)-one] | – | 5 to 100 µM | Non-Active at 10 μM |
| Cc1cnc2cc([C@H]3CC[C@@H](c4c(C)cccc4F)CC3)c(=O)n(Cc3nccnc3OC(F)F)c2n1 [168A, 5-((3-(Difluoromethoxy)pyrazin-2-yl)methyl)-7-((1s,4s)-4-(2-fluoro-6-methylphenyl)cyclohexyl)-3-methylpyrido[2,3-b]pyrazin-6(5H)-one] | – | 0.5 to 5 µM | Non-Active at 10 μM |
| Cc1cnc2cc([C@H]3CC[C@H](c4c(C)cccc4F)CC3)c(=O)n(Cc3nccnc3OC(F)F)c2n1 [168B, 5-((3-(Difluoromethoxy)pyrazin-2-yl)methyl)-7-((1r,4r)-4-(2-fluoro-6-methylphenyl)cyclohexyl)-3-methylpyrido[2,3-b]pyrazin-6(5H)-one] | – | < 0.5 µM | Non-Active at 10 μM |
| Cc1cnc2cc([C@H]3CC[C@@H](c4c(C)cccc4F)C3)c(=O)n(Cc3ncccc3C(F)(F)F)c2n1 [171A, 7-((1S,3R)-3-(2-Fluoro-6-methylphenyl)cyclopentyl)-3-methyl-5-((3-(trifluoromethyl)pyridin-2-yl)methyl)pyrido[2,3-b]pyrazin-6(5H)-one] | – | < 0.5 µM | Non-Active at 10 μM |
| Cc1cnc2cc([C@@H]3CC[C@H](c4c(C)cccc4F)C3)c(=O)n(Cc3ncccc3C(F)(F)F)c2n1 [171B, 7-((1R,3S)-3-(2-Fluoro-6-methylphenyl)cyclopentyl)-3-methyl-5-((3-(trifluoromethyl)pyridin-2-yl)methyl)pyrido[2,3-b]pyrazin-6(5H)-one] | – | < 0.5 µM | Non-Active at 10 μM |
| Cc1cnc2cc([C@H]3CC[C@H](c4c(C)cccc4F)C3)c(=O)n(Cc3ncccc3C(F)(F)F)c2n1 [171C, 7-((1S,3S)-3-(2-Fluoro-6-methylphenyl)cyclopentyl)-3-methyl-5-((3-(trifluoromethyl)pyridin-2-yl)methyl)pyrido[2,3-b]pyrazin-6(5H)-one] | Non-Active | < 0.5 µM | – |
| Cc1cnc2cc([C@@H]3CC[C@@H](c4c(C)cccc4F)C3)c(=O)n(Cc3ncccc3C(F)(F)F)c2n1 [171D, 7-((1R,3R)-3-(2-Fluoro-6-methylphenyl)cyclopentyl)-3-methyl-5-((3-(trifluoromethyl)pyridin-2-yl)methyl)pyrido[2,3-b]pyrazin-6(5H)-one] | – | 0.5 to 5 µM | Non-Active at 10 μM |

Results, then the molecule that gave them:

| [Agonist] B-arrestin2 recruitment: Average EC50 (nM) [1] | IC50 [2] | [Agonist] B-arrestin2 recruitment: Average EC50 (nM) ([1]; at 10 μM) | SMILES |
| --- | --- | --- | --- |
| – | 0.5 to 5 µM | Non-Active at 10 μM | Cc1cnc2cc([C@H]3CC[C@@H](c4c(C)cccc4F)C3)c(=O)n(Cc3nccnc3C)c2n1 [172A, 7-((1S,3R)-3-(2-Fluoro-6-methylphenyl)cyclopentyl)-3-methyl-5-((3-methylpyrazin-2-yl)methyl)pyrido[2,3-b]pyrazin-6(5H)-one] |
| – | 0.5 to 5 µM | Non-Active at 10 μM | Cc1cnc2cc([C@@H]3CC[C@H](c4c(C)cccc4F)C3)c(=O)n(Cc3nccnc3C)c2n1 [172B, 7-((1R,3S)-3-(2-Fluoro-6-methylphenyl)cyclopentyl)-3-methyl-5-((3-methylpyrazin-2-yl)methyl)pyrido[2,3-b]pyrazin-6(5H)-one] |
| – | < 0.5 µM | Non-Active at 10 μM | Cc1cnc2cc([C@H]3CC[C@H](c4c(C)cccc4F)C3)c(=O)n(Cc3nccnc3C)c2n1 [172C, 7-((1S,3S)-3-(2-Fluoro-6-methylphenyl)cyclopentyl)-3-methyl-5-((3-methylpyrazin-2-yl)methyl)pyrido[2,3-b]pyrazin-6(5H)-one] |
| – | 5 to 100 µM | Non-Active at 10 μM | Cc1cnc2cc([C@@H]3CC[C@@H](c4c(C)cccc4F)C3)c(=O)n(Cc3nccnc3C)c2n1 [172D, 7-((1R,3R)-3-(2-Fluoro-6-methylphenyl)cyclopentyl)-3-methyl-5-((3-methylpyrazin-2-yl)methyl)pyrido[2,3-b]pyrazin-6(5H)-one] |
| – | 5 to 100 µM | Non-Active at 10 μM | Cc1cnc2cc([C@H]3CC[C@H](c4c(C)cccc4F)CC3)c(=O)n([C@H]3CCC(F)(F)c4nccnc43)c2n1 [174A, 5-((S)-8,8-Difluoro-5,6,7,8-tetrahydroquinoxalin-5-yl)-7-((1r,4S)-4-(2-fluoro-6-methylphenyl)cyclohexyl)-3-methylpyrido[2,3-b]pyrazin-6(5H)-one] |
| – | 0.5 to 5 µM | Non-Active at 10 μM | Cc1cnc2cc([C@H]3CC[C@H](c4c(C)cccc4F)CC3)c(=O)n([C@@H]3CCC(F)(F)c4nccnc43)c2n1 [174B, 5-((R)-8,8-Difluoro-5,6,7,8-tetrahydroquinoxalin-5-yl)-7-((1r,4R)-4-(2-fluoro-6-methylphenyl)cyclohexyl)-3-methylpyrido[2,3-b]pyrazin-6(5H)-one] |
| Non-Active | < 0.5 µM | – | Cc1cnc2cc([C@H]3CC[C@@H](c4c(C)cccc4F)C3)c(=O)n(Cc3ncccc3OC(F)F)c2n1 [175A, 5-((3-(Difluoromethoxy)pyridin-2-yl)methyl)-7-((1S,3R)-3-(2-fluoro-6-methylphenyl)cyclopentyl)-3-methylpyrido[2,3-b]pyrazin-6(5H)-one] |
| – | < 0.5 µM | Non-Active at 10 μM | Cc1cnc2cc([C@@H]3CC[C@H](c4c(C)cccc4F)C3)c(=O)n(Cc3ncccc3OC(F)F)c2n1 [175B, 5-((3-(Difluoromethoxy)pyridin-2-yl)methyl)-7-((1R,3S)-3-(2-fluoro-6-methylphenyl)cyclopentyl)-3-methylpyrido[2,3-b]pyrazin-6(5H)-one] |
